Series [1] in a line: physchem. As to conditions: buffer, pH 6.5.
The nature of series [2]: physchem. The following applies: buffer.
Series [3] is described as follows: in vitro. The following applies: male, Wistar Han, rat, tissue homogenate, pH 6.8.
For series [4] the following is noted: rat, in vivo.
For series [5] the following is noted: Han Wistar, rat, pH 6.8.
The conditions of series [6]: pH 6.5.
The nature of series [7]: in vitro. As to conditions: rat, pH 7.2, rat blood T1/2 (h) pH 7.2.

The values below come from article PMC9340777 (Journal of Medicinal Chemistry, 2022).

`CC(OC(=O)[C@@H]1CCCN1)OC(=O)N1CCC(OC(=O)C(O)(c2ccccc2)c2ccccc2)CC1.Cl` (stereo partly drawn) [Compound 9, 1-((L-Prolyl)oxy)ethyl-4-(2-hydroxy-2,2-diphenylacetoxy)piperidine-1-carboxylate Hydrochloride] gave a half-life in the series “physchem [1]” of 0.14 h.
As for `CC(OC(=O)[C@@H](NC(=O)[C@@H](N)CCCCN)C(C)C)OC(=O)N1CCC(OC(=O)C(O)(c2ccccc2)c2ccccc2)CC1.Cl.Cl` (stereo partly drawn) [Compound 25, 1-((L-Lysyl-L-valyl)oxy)ethyl-4-(2-hydroxy-2,2-diphenylacetoxy)piperidine-1-carboxylate Dihydrochloride], the half-life in “physchem [2]” (pH 6.5) was 14.4 ± 1.68 h; in the series “physchem [2]” (pH 7.4), 4.4 ± 0.39 h; in “in vitro [3]”, 0.6 ± 0.09 h.
Regarding `CC[C@H](C)[C@H](N)C(=O)N[C@@H](CCCCN)C(=O)OC(C)OC(=O)N1CCC(OC(=O)C(O)(c2ccccc2)c2ccccc2)CC1.Cl.Cl` (stereo partly drawn) [Compound 27, 1-((L-Isoleucyl-L-lysyl)oxy)ethyl-4-(2-hydroxy-2,2-diphenylacetoxy)piperidine-1-carboxylate Dihydrochloride], the half-life in the series “physchem [2]” (pH 6.5) was 4.9 ± 0.06 h; in the series “physchem [2]” (pH 7.4), 0.9 ± 0.04 h.
With `CC[C@H](C)[C@H](N)C(=O)OC(C)OC(=O)N1CCC(OC(=O)C(O)(c2ccccc2)c2ccccc2)CC1.Cl` (stereo partly drawn) [Compound 16, 1-((L-Isoleucyl)oxy)ethyl-4-(2-hydroxy-2,2-diphenylacetoxy)piperidine-1-carboxylate Hydrochloride], in the series “physchem [1]”, the half-life was 13.9 h.
Turning to `CC(C)C[C@H](N)C(=O)OC(C)OC(=O)N1CCC(OC(=O)C(O)(c2ccccc2)c2ccccc2)CC1.Cl` (stereo partly drawn) [Compound 13, 1-((L-Leucyl)oxy)ethyl-4-(2-hydroxy-2,2-diphenylacetoxy)piperidine-1-carboxylate Hydrochloride], the half-life in “physchem [1]” is 5.09 h.
For the compound `CC(OC(=O)[C@H](NC(=O)[C@@H](N)CCCCN)C(C)(C)C)OC(=O)N1CCC(OC(=O)C(O)(c2ccccc2)c2ccccc2)CC1.Cl.Cl` (stereo partly drawn) [Compound 23, 1-(((R)-2-((S)-2,6-Diaminohexanamido)-3,3-dimethylbutanoyl)oxy)ethyl-4-(2-hydroxy-2,2-diphenylacetoxy)piperidine-1-carboxylate Dihydrochloride], in series [4] (male, Sprague Dawley), the “23 in lung as % of the total dose delivered (calculated mass balance)” value is on record as 54%. Moreover, in series [4] (male, Sprague Dawley), the “ratio of 23 to 1 in lung” value is ~27:1. Also, the “total lung concentration of 23” value in series [4] (male, Sprague Dawley, 0.2 mg/kg) turned out to be 31.2 µM. For the same compound, the “plasma concentration of 23 in words” value in series [4] (0.2 mg/kg) is “only a very low concentration”. In addition, the “formation of monobasic intermediate (peptide amide bond hydrolysis)” value in series [5] is on record as “no evidence of intermediate 18”. Moreover, the “appearance in dosing formulation” value in series [6] is reported as “clear solution”. The half-life is 58.6 ± 4.91 h in “physchem [2]” (pH 6.5), 36.6 ± 1.7 h in “physchem [2]” (pH 7.4), 25.4 ± 1.94 h in the series “in vitro [3]” and 7 ± 0.82 h in “in vitro [7]”.
Consider `CC(OC(=O)[C@H](NC(=O)[C@@H](N)CCCCN)C(C)C)OC(=O)N1CCC(OC(=O)C(O)(c2ccccc2)c2ccccc2)CC1.Cl.Cl` (stereo partly drawn) [Compound 26, 1-((L-Lysyl-D-valyl)oxy)ethyl-4-(2-hydroxy-2,2-diphenylacetoxy)piperidine-1-carboxylate Dihydrochloride], for which the half-life in the series “physchem [2]” (pH 6.5) was 8.7 ± 1.06 h; in “physchem [2]” (pH 7.4) it was 1.8 ± 0.2 h; in the series “in vitro [3]”, 3.4 ± 0.08 h; in “in vitro [7]”, 0.6 ± 0.07 h.
For the compound `CC(OC(=O)[C@@H](NC(=O)[C@@H](N)CCCCN)C(C)(C)C)OC(=O)N1CCC(OC(=O)C(O)(c2ccccc2)c2ccccc2)CC1.Cl.Cl` (stereo partly drawn) [Compound 22, 1-(((S)-2-((S)-2,6-Diaminohexanamido)-3,3-dimethylbutanoyl)oxy)ethyl-4-(2-hydroxy-2,2-diphenylacetoxy)piperidine-1-carboxylate Dihydrochloride], the “rat blood T1/2 (h) pH 7.2” value was 0.1 ± 0.01 h. The “formation of monobasic intermediate (peptide amide bond hydrolysis)” value in series [5] is given as “clearly showing the intermediate 15”. Moreover, in “physchem [2]” (pH 6.5), the half-life was 186 ± 0.79 h. Moreover, in the series “physchem [2]” (pH 7.4), the half-life was 67 ± 0.23 h. The same compound had a half-life in the series “in vitro [3]” of 2.5 ± 0.07 h. In the series “in vitro [7]”, this compound had a half-life of 0.2 h.
As to `CC(OC(=O)[C@@H](N)CCCCN)OC(=O)N1CCC(OC(=O)C(O)(c2ccccc2)c2ccccc2)CC1.Cl.Cl` (stereo partly drawn) [Compound 17, 1-((L-Lysyl)oxy)ethyl-4-(2-hydroxy-2,2-diphenylacetoxy)piperidine-1-carboxylate Dihydrochloride], the results for the half-life in “physchem [2]” (pH 6.5) and in the series “physchem [2]” (pH 7.4) were 3.9 ± 0.05 h and 1.1 ± 0.02 h, respectively.
Turning to `CC(OC(=O)CCCCN)OC(=O)N1CCC(OC(=O)C(O)(c2ccccc2)c2ccccc2)CC1.Cl` (stereo not drawn) [Compound 6, 1-((5-Aminopentanoyl)oxy)ethyl-4-(2-hydroxy-2,2-diphenylacetoxy)piperidine-1-carboxylate Hydrochloride], the half-life in the series “physchem [1]” is < 0.01 h.
`CC(OC(=O)[C@@H](N)C(C)(C)C)OC(=O)N1CCC(OC(=O)C(O)(c2ccccc2)c2ccccc2)CC1.Cl` (stereo partly drawn) [Compound 15, 1-(((S)-2-Amino-3,3-dimethylbutanoyl)oxy)ethyl-4-(2-hydroxy-2,2-diphenylacetoxy)piperidine-1-carboxylate Hydrochloride]: in the series “physchem [1]”, the half-life is 12.2 h.
With `CC(OC(=O)[C@H](CCCCN)NC(=O)CCN)OC(=O)N1CCC(OC(=O)C(O)(c2ccccc2)c2ccccc2)CC1.Cl.Cl` (stereo partly drawn) [Compound 28, 1-(((3-Aminopropanoyl)-L-lysyl)oxy)ethyl-4-(2-hydroxy-2,2-diphenylacetoxy)piperidine-1-carboxylate Dihydrochloride], the half-life in the series “physchem [2]” (pH 6.5) is 102 ± 3.86 h; in “physchem [2]” (pH 7.4), 11.5 ± 0.73 h; in “in vitro [3]”, 0.7 ± 0.21 h.
Regarding `CC(OC(=O)[C@@H](N)C(C)C)OC(=O)N1CCC(OC(=O)C(O)(c2ccccc2)c2ccccc2)CC1.Cl` (stereo partly drawn) [Compound 14, 1-((L-Valyl)oxy)ethyl-4-(2-hydroxy-2,2-diphenylacetoxy)piperidine-1-carboxylate Hydrochloride], the half-life in the series “physchem [1]” is 15.8 h.
